Laboratory results: publication PMC7518156 (PeerJ, 2020)
Like-named read-outs stand apart in the source and are kept apart here.

Experiment: Pharmacokinetics of ERL and GEF in Wistar rats after four weeks consumption of water or flavoured water (plasma, UPLC-MS/MS, non-compartmental analysis)
Format: in vivo
Details: for AUC(0-t): read-out: AUC0-48; for half-life: read-out: t½ (converted)
Method: Fifty healthy male Wistar rats weighing 250 ± 30 g were obtained from the animal house, College of Pharmacy, King Saud University, Riyadh, Saudi Arabia. Rats were randomly divided into ten cages (n = 5). All individualized ventilated cages (IVC) type IV used in this study were of 20″L × 11″W × 9″ in dimension capable of hosting 4–5 rats. Cages density, bedding, and sanitation frequency was similar in all cages. Cages were housed at room temperature (25 °C) and at an average relative humidity of 50%. Daily observation of all rats was required to ensure that all animals maintained good health. All animal experiments strictly followed the guidelines of the Ethical Committee for Performing Studies on Animals, King Saud University, Riyadh, Saudi Arabia, protocol number KSU-SE-19-13.
Four types of FW, (Aquafina®, a product of Pepsi-Cola®, Saudi Industrial Projects Company, Jeddah, Saudi Arabia) with different flavours, specifically berry (group II), peach (group III), lime (group IV), and pineapple FW (group V) were used. Other components found in FW used in this study include water, preservatives (sodium phosphate, potassium sorbet, sodium benzoate), acidifiers (citric acid, maleic acid), sweeteners (aspartame, potassium acesulfame, allose), acidity regulator (sodium citrate), and antioxidant agent (calcium disodium EDTA). […] The parallel design was used in this study to avoid animals’ physiological changes that could occur in the cross-over design, possibly affecting PK profiles of drug substances. All animals involved in the study were deprived from food, but not water/FW, for at least 12 h before drug administration. […] Drugs were administered to the rats between 7:00 am and 8:00 am. Rats were separately weighed from day one of water/FW consumption prior to drug administration for accurate dose calculation (Fig. S1). Blood samples (0.3 mL) were collected from each rat immediately prior to dosing (0 time) and at predetermined time points (0.5, 1, 2, 3, 5, 24, and 48 h) post drug administration. Blood samples were withdrawn and processed as described previously ([Maher et al., 2017]; [Maher, Alzoman & Shehata, 2016]; [Maher, Alzoman & Shehata, 2018]). Specifically, blood samples were withdrawn from the retro-orbital sinus into a series of heparinized tubes. Plasma was separated from collected blood samples by centrifugation at 4,500 rpm for 30 min where the centrifuge was maintained at 4 °C, and then stored at −20 °C until the day of analysis. […] A mixture of acetonitrile: water (80: 20, v/v), with 0.1% formic acid was used as a mobile phase at a flow rate of 0.2 mL/min ([Maher, Alzoman & Shehata, 2016]).
Cmax and tmax were obtained from the corresponding plasma concentration–time curve (Figs. 1A and 1B). […] The area under the plasma concentration–time curve from time 0 to the last sampling time t, 48 h (AUC0–t) was calculated using the trapezoidal rule. […] AUC0–∞ was also derived by summing up AUC0–t andthe area obtained by extrapolation from time t to ∞. The latter area was calculated from the division of the last measured concentration (Clast) by λz.
Results were presented as mean ± SD. PK parameters of all treated groups following the consumption of FW were compared with control (rats having free access to water), using one-way ANOVA and Bonferroni’s multiple comparisons test. Statistical significance was obtained with p-values ≤ 0.05.

[1] = male, Wistar, rat, plasma, oral, 20 mg/kg, PKSolver sheet, dose 20 mg/kg, +Berry, read-out: Conc
[2] = male, Wistar, rat, plasma, oral, 20 mg/kg, PKSolver sheet, dose 20 mg/kg, +Lime, read-out: Conc
[3] = male, Wistar, rat, plasma, oral, 20 mg/kg, PKSolver sheet, dose 20 mg/kg, +Peach, read-out: Conc
[4] = male, Wistar, rat, plasma, oral, 20 mg/kg, PKSolver sheet, dose 20 mg/kg, +Pineapple, read-out: Conc
[5] = male, Wistar, rat, plasma, oral, 20 mg/kg, PKSolver sheet, dose 20 mg/kg, drug alone (water), read-out: Conc
[6] = male, Wistar, rat, plasma, po, 20 mg/kg, rats, 20 mg/kg oral, +Berry FW, average, read-out: Conc*10 (ng/mL plasma)
[7] = male, Wistar, rat, plasma, po, 20 mg/kg, rats, 20 mg/kg oral, +Lime FW, average, read-out: Conc*10 (ng/mL plasma)
[8] = male, Wistar, rat, plasma, po, 20 mg/kg, rats, 20 mg/kg oral, +Peach FW, average, read-out: Conc*10 (ng/mL plasma)
[9] = male, Wistar, rat, plasma, po, 20 mg/kg, rats, 20 mg/kg oral, +Pineapple FW, average, read-out: Conc*10 (ng/mL plasma)
[10] = male, Wistar, rat, plasma, po, 20 mg/kg, rats, 20 mg/kg oral, drug alone (water), average, read-out: Conc*10 (ng/mL plasma)
[11] = male, Wistar, rat, plasma, po, 20 mg/kg, rats, 20 mg/kg oral, four weeks berry FW, n = 5, mean (SD)
[12] = male, Wistar, rat, plasma, po, 20 mg/kg, rats, 20 mg/kg oral, four weeks peach FW, n = 5, mean (SD)
[13] = male, Wistar, rat, plasma, po, 20 mg/kg, rats, 20 mg/kg oral, four weeks pineapple FW, n = 5, mean (SD)
[14] = male, Wistar, rat, plasma, po, 20 mg/kg, rats, 20 mg/kg oral, water (control), n = 5, mean (SD)
[15] = male, Wistar, rat, plasma, po, 20 mg/kg, raw data sheet, from average profile, +Berry FW
[16] = male, Wistar, rat, plasma, po, 20 mg/kg, raw data sheet, from average profile, +Lime FW
[17] = male, Wistar, rat, plasma, po, 20 mg/kg, raw data sheet, from average profile, +Peach FW
[18] = male, Wistar, rat, plasma, po, 20 mg/kg, raw data sheet, from average profile, +Pineapple FW
[19] = male, Wistar, rat, plasma, po, 20 mg/kg, raw data sheet, from average profile, drug alone (water)
[20] = rats, lime FW relative to control (water)
[21] = rats, pineapple FW relative to control (water)

## COc1cc2ncnc(Nc3ccc(F)c(Cl)c3)c2cc1OCCCN1CCOCC1 [GEF, Gefitinib]
[1]
  concentration at 0 h: 39.1 ng/mL
  concentration at 0.5 h: 99.7 ng/mL
  concentration at 1 h: 152 ng/mL
  concentration at 2 h: 322 ng/mL
  concentration at 3 h: 191 ng/mL
  concentration at 5 h: 150 ng/mL
  concentration at 24 h: 81.4 ng/mL
  concentration at 48 h: 30.2 ng/mL
[2]
  concentration at 0 h: 157 ng/mL
  concentration at 0.5 h: 387 ng/mL
  concentration at 1 h: 483 ng/mL
  concentration at 2 h: 574 ng/mL
  concentration at 3 h: 643 ng/mL
  concentration at 5 h: 490 ng/mL
  concentration at 24 h: 216 ng/mL
  concentration at 48 h: 95.2 ng/mL
[3]
  concentration at 0 h: 44.5 ng/mL
  concentration at 0.5 h: 135 ng/mL
  concentration at 1 h: 202 ng/mL
  concentration at 2 h: 365 ng/mL
  concentration at 3 h: 213 ng/mL
  concentration at 5 h: 161 ng/mL
  concentration at 24 h: 85.3 ng/mL
  concentration at 48 h: 25.2 ng/mL
male, Wistar, rat, plasma, oral, 20 mg/kg, PKSolver sheet, dose 20 mg/kg, +Pineapple
  Cmax: 0.445 µg/mL
male, Wistar, rat, plasma, oral, 20 mg/kg, PKSolver sheet, dose 20 mg/kg, +Pineapple, read-out: Tmax
  Tmax: 2 h
[4]
  concentration at 0 h: 75.5 ng/mL
  concentration at 0.5 h: 227 ng/mL
  concentration at 1 h: 302 ng/mL
  concentration at 2 h: 445 ng/mL
  concentration at 3 h: 259 ng/mL
  concentration at 5 h: 210 ng/mL
  concentration at 24 h: 152 ng/mL
  concentration at 48 h: 40.2 ng/mL
[5]
  concentration at 0 h: 34.5 ng/mL
  concentration at 0.5 h: 142 ng/mL
  concentration at 1 h: 220 ng/mL
  concentration at 2 h: 402 ng/mL
  concentration at 3 h: 169 ng/mL
  concentration at 5 h: 148 ng/mL
  concentration at 24 h: 69.8 ng/mL
  concentration at 48 h: 29.2 ng/mL
[6]
  concentration at 0 h: 39.1 ng/mL
  concentration at 0.5 h: 99.7 ng/mL
  concentration at 1 h: 152 ng/mL
  concentration at 2 h: 322 ng/mL
  concentration at 3 h: 191 ng/mL
  concentration at 5 h: 150 ng/mL
  concentration at 24 h: 81.4 ng/mL
  concentration at 48 h: 30.2 ng/mL
[7]
  concentration at 0 h: 157 ng/mL
  concentration at 0.5 h: 387 ng/mL
  concentration at 1 h: 483 ng/mL
  concentration at 2 h: 574 ng/mL
  concentration at 3 h: 643 ng/mL
  concentration at 5 h: 490 ng/mL
  concentration at 24 h: 216 ng/mL
  concentration at 48 h: 95.2 ng/mL
[8]
  concentration at 0 h: 44.5 ng/mL
  concentration at 0.5 h: 135 ng/mL
  concentration at 1 h: 202 ng/mL
  concentration at 2 h: 365 ng/mL
  concentration at 3 h: 213 ng/mL
  concentration at 5 h: 161 ng/mL
  concentration at 24 h: 85.3 ng/mL
  concentration at 48 h: 25.2 ng/mL
[9]
  concentration at 0.5 h: 227 ng/mL
  concentration at 1 h: 302 ng/mL
  concentration at 2 h: 445 ng/mL
  concentration at 3 h: 259 ng/mL
  concentration at 5 h: 210 ng/mL
  concentration at 24 h: 152 ng/mL
  concentration at 48 h: 40.2 ng/mL
[10]
  concentration at 0 h: 34.5 ng/mL
  concentration at 0.5 h: 142 ng/mL
  concentration at 1 h: 220 ng/mL
  concentration at 2 h: 402 ng/mL
  concentration at 3 h: 169 ng/mL
  concentration at 5 h: 148 ng/mL
  concentration at 24 h: 69.8 ng/mL
  concentration at 48 h: 29.2 ng/mL
[11]
  AUC(0-inf): 5.23 µg·h/mL
  CL/F: 4.48 L/h/kg
  AUC(0-t): 4.46 µg·h/mL
  half-life: 17.7 h
male, Wistar, rat, plasma, po, 20 mg/kg, rats, 20 mg/kg oral, four weeks berry FW, n = 5, mean (SD), read-out: tmax
  Tmax: 2.33 h
male, Wistar, rat, plasma, po, 20 mg/kg, rats, 20 mg/kg oral, four weeks lime FW, n = 5, mean (SD)
  half-life: 16.9 h
[12]
  AUC(0-inf): 5.3 µg·h/mL
  CL/F: 4.22 L/h/kg
  Cmax: 0.365 µg/mL
  AUC(0-t): 4.74 µg·h/mL
  half-life: 15.4 h
male, Wistar, rat, plasma, po, 20 mg/kg, rats, 20 mg/kg oral, four weeks peach FW, n = 5, mean (SD), read-out: tmax
  Tmax: 2 h
[13]
  Cmax: 0.445 µg/mL
  half-life: 17.8 h
male, Wistar, rat, plasma, po, 20 mg/kg, rats, 20 mg/kg oral, four weeks pineapple FW, n = 5, mean (SD), read-out: tmax
  Tmax: 1.71 h
[14]
  AUC(0-inf): 5.06 µg·h/mL
  CL/F: 4.64 L/h/kg
  Cmax: 0.406 µg/mL
  AUC(0-t): 4.31 µg·h/mL
  half-life: 17.9 h
male, Wistar, rat, plasma, po, 20 mg/kg, rats, 20 mg/kg oral, water (control), n = 5, mean (SD), read-out: tmax
  Tmax: 2 h
[15]
  AUC: 5.23 µg·h/mL
  Cmax: 0.322 µg/mL
  half-life: 17.7 h
male, Wistar, rat, plasma, po, 20 mg/kg, raw data sheet, from average profile, +Berry FW, read-out: tmax
  Tmax: 2 h
[16]
  AUC: 15.4 µg·h/mL
  Cmax: 0.643 µg/mL
  half-life: 16.9 h
[17]
  AUC: 5.3 µg·h/mL
  Cmax: 0.365 µg/mL
  half-life: 15.4 h
male, Wistar, rat, plasma, po, 20 mg/kg, raw data sheet, from average profile, +Peach FW, read-out: tmax
  Tmax: 2 h
[18]
  AUC: 8.17 µg·h/mL
  Cmax: 0.445 µg/mL
  half-life: 17.8 h
male, Wistar, rat, plasma, po, 20 mg/kg, raw data sheet, from average profile, +Pineapple FW, read-out: tmax
  Tmax: 2 h
[19]
  AUC: 5.06 µg·h/mL
  Cmax: 0.402 µg/mL
  half-life: 17.9 h
male, Wistar, rat, plasma, po, 20 mg/kg, raw data sheet, from average profile, drug alone (water), read-out: tmax
  Tmax: 2 h
rats, all tested FW relative to control (water)
  change in t1/2: None of the tested FW caused a significant change
rats, berry FW relative to control (water)
  effect on exposure (AUC0–48): no effect was found
[20]
  decrease in apparent oral clearance (CL/F): 67%
  increase in AUC0–48: 203%
  increase in AUC0–∞: 203%
  increase in Cmax: 58%
  increase in tmax: ~50%
[21]
  decrease in apparent oral clearance (CL/F): ~40%
  increase in AUC0–48: ~65%
  increase in AUC0–∞: ~61%
Raw data sheet, from average profile, +Lime FW
  Tmax: 3 h
Raw data sheet, +Berry FW vs drug alone
  % change FOR C MAX: -19% FOR C MAX
Raw data sheet, +Lime FW vs drug alone
  % change FOR C MAX: 60% FOR C MAX
Raw data sheet, +Peach FW vs drug alone
  % change FOR C MAX: -9% FOR C MAX
Raw data sheet, +Pineapple FW vs drug alone
  % change FOR C MAX: 11% FOR C MAX
